# Data reported in patent publication US20230140290A1, “SALICYLAMIDE DERIVATIVES AND RELATED METHODS OF MAKING” (THE BOARD OF REGENTS OF THE UNIVERSITY OF TEXAS SY, priority 2020, published 2023).
# Experiments:
# HAdV5-GFP [1] = experiment: Plaque assay (inhibition of HAdV plaque formation); assay type: cell-based, HAdV-5; details: for inhibition at 10 µM: read-out: Plaque Assay (%) Inhibition (10 μM); for Selectivity index (SI): ratio of CC50 to IC50 in plaque assay
# Summary of the method: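 Compounds were present in the post-infection mixture at 10 μM, or at 10 to 0.3 μM for dose-response. Infection used low MOI HAdV5-GFP (0.06 vp/cell) on 80-90% confluent cells, 2 h rocking at 37° C, then a PBS wash.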
# HAdV5-GFP [2] = experiment: Entry assay (HAdV5-mediated GFP expression); assay type: cell-based, HAdV-5; details: for inhibition at 50 µM: A549, 48 h, read-out: (%) Inhibition Entry Assay (50 μM); for IC50: A549, read-out: IC50 Entry Assay (μM), HAdV5-GFP, high MOI, A549 cell line
# Protocol: Entry Assay. The anti-HAdV activity was measured in an entry assay using human A549 epithelial cells (3×10^5 cells/well in coming black wall, clear bottom 96-well plates) infected with HAdV5-GFP (2000 vp/cell) in the presence 50 μM of the candidates and in a dose-response assay. A standard infection curve was generated in parallel by infecting cells in the absence of compounds using serial 2-fold dilutions of virus. All reactions were done in triplicate. Cells, virus, and drugs were incubated for 48 h at 37° C. and 5% CO2.
# wild-type HAdV5 = experiment: Nuclear-associated HAdV genomes (real-time PCR); assay type: cell-based, HAdV-5
# Protocol: (§1) Nuclear-Associated HAdV Genomes. The nuclear delivery of HAdV genomes was assessed by real-time PCR following nuclear isolation from infected cells. […] Forty-five minutes after infection, A549 cells were trypsinized and collected and then washed twice with PBS. Then, cytoplasmic and nuclear fractions were separated using a hypotonic buffer solution and NP-40 detergent. The cell pellet was resuspended in 500 μL of 1×hypotonic buffer (20 mM Tris-HCl pH 7.4, 10 mM NaCl, 3 mM MgCl2) and incubated for 15 min at 4° C. Then, 25 μL of NP-40 was added and the samples were vortexed. The homogenates were centrifuged for 10 min at 835 g at 4° C. Following the removal of the cytoplasmic fraction (supernatant), HAdV DNA was isolated from the nuclear fraction (pellet) and from the cytoplasmic fraction using the QIAamp DNA Mini Kit (QIAGEN, Valencia, Calif.).
# as §1, with “E.Z.N.A.® Tissue” for “QIAamp”, “DNA” for “DNA Mini”, “(Omega Bio-tek, Norcross, Ga.).” for “(QIAGEN, Valencia, Calif.).”
# A549 cells = experiment: Cytotoxicity assay (AlamarBlue); details: read-out: CC50 (μM), cytotoxic concentration 50%; A549 cell line, 48 h
# Protocol: Cytotoxicity Assay. The cytotoxicity of the compounds was analyzed by commercial kit AlamarBlue® (Invitrogen, Ref. DAL1025). A549 cells at a density of 5×10^3 cells per well in 96-well plates were seeded. […] Cells were then incubated at 37° C. for 48 h following the kit protocol. The cytotoxic concentration 50 (CC50) value was obtained using the statistical package GraphPad Prism. This assay was performed in duplicate.
# [3] = read-out: Plaque Assay IC50 (μM), HAdV5-GFP, low MOI, 293β5 cell line
# [4] = FIG. 3, 45 min post infection, concentrations by CC50 (2-50 μM)
Compound,inhibition at 10 µM (HAdV5-GFP [1]) [%],IC50 (HAdV5-GFP [1]; [3]) [µM],inhibition at 50 µM (HAdV5-GFP [2]) [%],amount of nuclear-associated HAdV genomes versus DMSO (wild-type HAdV5; [4]),Selectivity index (SI) (HAdV5-GFP [1]),CC50 (A549 cells) [µM],IC50 (HAdV5-GFP [2]) [µM],"amount of nuclear-associated HAdV genomes versus DMSO (wild-type HAdV5; FIG. 5A, 45 min post-infection, 10-fold plaque IC50)",Plaque Assay (%) Inhibition (10 μM) (HAdV5-GFP [1]),"IC50 (HAdV5-GFP [1]; read-out: Plaque Assay IC50, HAdV5-GFP, low MOI, 293β5 cell line) [µM]"
"O=C(Nc1ccc([N+](=O)[O-])cc1)c1cc(Cl)ccc1O [Compound 13, 5-Chloro-2-hydroxy-N-(4-nitrophenyl)benzamide]",98 ± 2.8,0.11,100,significant (p≤0.0001) reductions,,,,,,
"CC[C@@H](C)[C@H](NC(=O)c1cc(Cl)ccc1O)C(=O)Nc1ccc([N+](=O)[O-])cc1Cl [Compound 62, 5-Chloro-N-((2S,3R)-1-((2-chloro-4-nitrophenyl)amino)-3-methyl-1-oxopentan-2-yl)-2-hydroxybenzamide]",99 ± 0.3,0.16,98.2 ± 0.5,significant (p≤0.0001) reductions,127.6,20.2,2.5 ± 0.22,,,
"CC(C)[C@H](NC(=O)c1cc(Cl)ccc1NS(C)(=O)=O)C(=O)Nc1ccc([N+](=O)[O-])cc1Cl [Compound 70, (S)-5-Chloro-N-(1-((2-chloro-4-nitrophenyl)amino)-3-methyl-1-oxobutan-2-yl)-2-(methylsulfonamido)benzamide]",99.1 ± 1.2,0.68,99.1 ± 1.2,significant (p≤0.0001) reductions,256.0,174,1.38 ± 0.1,,,
"CC(C)(Cc1ccccc1)ON(c1ccc(NC(=O)c2cc(Cl)ccc2O)c(Cl)c1)C(C)(C)Cc1ccccc1 [Compound 115, 5-Chloro-N-(2-chloro-4-((2-methyl-1-phenylpropan-2-yl)((2-methyl-1-phenylpropan-2-yl)oxy)amino)phenyl)-2-hydroxybenzamide]",100,1.27,59.1,,129.7,165,34.1,no significant differences,,
"O=C(Nc1ccc(NCCCO)cc1Cl)c1cc(Cl)ccc1O [Compound 120, 5-Chloro-N-(2-chloro-4-((3-hydroxypropyl)amino)phenyl)-2-hydroxybenzamide]",36 ± 4.2,,,,,106,,,inactive,
"O=C(Nc1ccc(N(CCCO)CCCO)cc1Cl)c1cc(Cl)ccc1O [Compound 121, N-(4-(Bis(3-hydroxypropyl)amino)-2-chlorophenyl)-5-chloro-2-hydroxybenzamide]",35 ± 7.1,,,,,114 ± 9.2,,,inactive,
"CC(C)(C)OC(=O)NCCNc1ccc(NC(=O)c2cc(Cl)ccc2O)c(Cl)c1 [Compound 122, tert-Butyl (2-((3-chloro-4-(5-chloro-2-hydroxybenzamido)phenyl)amino)ethyl)carbamate]",100,2.78,,,9.0,25 ± 5.7,,,,
"CC(C)(C)OC(=O)N1CCC(Nc2ccc(NC(=O)c3cc(Cl)ccc3O)c(Cl)c2)CC1 [Compound 124, tert-Butyl 4-((3-chloro-4-(5-chloro-2-hydroxybenzamido)phenyl)amino)piperidine-1-carboxylate]",88.9 ± 9,1.21,,,82.6,100,,,,
"Cc1ccc(O)c(C(=O)Nc2ccc(NC3CCCC3)cc2Cl)c1 [Compound 136, N-(2-Chloro-4-(cyclopentylamino)phenyl)-2-hydroxy-5-methylbenzamide]",99.6 ± 0.5,2.72,,,11.4,30.9 ± 1.6,,,,
"CS(=O)(=O)Nc1ccc(Cl)cc1C(=O)Nc1ccc(NC2CCCC2)cc1Cl [Compound 140, 5-Chloro-N-(2-chloro-4-(cyclopentylamino)phenyl)-2-(methylsulfonamido)benzamide]",99.8 ± 0.4,1.72,,,20.6,35.4 ± 2.7,,,,
"O=C(Nc1ccc(NC2CCCC2)cc1)c1cc(Cl)ccc1O [Compound 141, 5-Chloro-N-(4-(cyclopentylamino)phenyl)-2-hydroxybenzamide]",99.8 ± 0.3,2.6,,,3.9,10 ± 2.2,,,,
"O=C(Nc1ccc(NC2CCCC2)cc1F)c1cc(Cl)ccc1O [Compound 142, 5-Chloro-N-(4-(cyclopentylamino)-2-fluorophenyl)-2-hydroxybenzamide]",98.7 ± 0.4,1.04,,,49.1,51 ± 13.3,,,,
"O=C(Nc1ccc(NC2CCCC2)c(Cl)c1)c1cc(Cl)ccc1O [Compound 143, 5-Chloro-N-(3-chloro-4-(cyclopentylamino)phenyl)-2-hydroxybenzamide]",100,0.84,,,20.1,16.9 ± 0.1,,,,1.34
"O=C(Nc1cc(NC2CCCC2)ccc1F)c1cc(Cl)ccc1O [Compound 144, 5-Chloro-N-(5-(cyclopentylamino)-2-fluorophenyl)-2-hydroxybenzamide]",99.8 ± 0.4,1.34 ± 0.05,,,32.8,44 ± 12.8,,,,
"O=C(NCc1ccc(NC2CCCC2)cc1Cl)c1cc(Cl)ccc1O [Compound 145, 5-Chloro-N-(2-chloro-4-(cyclopentylamino)benzyl)-2-hydroxybenzamide]",98.5 ± 0.7,7.97 ± 0.43,,,3.6,28.3 ± 2.5,,,,
"CC(C)[C@H](NC(=O)c1cc(Cl)ccc1O)C(=O)Nc1ccc(NC2CCCC2)cc1Cl [Compound 147, (S)-5-chloro-N-(1-((2-chloro-4-(cyclopentylamino)phenyl)amino)-3-methyl-1-oxobutan-2-yl)-2-hydroxybenzamide]",99.5 ± 0.7,3.83 ± 0.42,,,28.9,111 ± 8.4,,,,
